Assay results from US11718626B2, “Macrocyclic compounds for treatment of medical disorders” (Achillion Pharmaceuticals, Inc., priority 2017, dated 2023).
“And” between values parts separate entries of the source, which are not always exact repeats. Equal values may be shown once. Read-outs that look alike come from different tables or passages of the source.

Columns and labels:
[1] = rcm bond, toluene, 80.0 °C
[2] = rcm bond, Grubbs II, toluene, 80.0 °C

## CC(C)(C)OC(=O)N1[C@H]2C[C@@]3(CNC(=O)C(C)(C)CC=CCOCc4ccc(Br)nc4NC2=O)C[C@@H]13
[1]; from C=CCOCc1ccc(Br)nc1NC(=O)[C@@H]1C[C@@]2(CNC(=O)C(C)(C)CC=C)C[C@H]2N1C(=O)OC(C)(C)C, 17-membered ring, Grubbs II, 3.14 mM, 16.0 h
  ring closure, isolated yield: 83.1%

## CC(=O)c1nn2c3c(cc(-c4cnc(C)nc4)cc13)CCCCCCC=Cc1cn(nn1)C[C@@]13C[C@@H](C(=O)Nc4nc(Br)ccc4C)N(C(=O)C2)[C@@H]1C3
[2]; from C=CCCCCCCc1cc(-c2cnc(C)nc2)cc2c(C(C)=O)nn(CC(=O)N3[C@H](C(=O)Nc4nc(Br)ccc4C)C[C@@]4(Cn5cc(C=C)nn5)C[C@@H]34)c12, 20-membered ring, 2.6 mM, 16.0 h
  ring closure, yield after HPLC: 3.97%
[2]; from C=CCCCCCCc1cc(-c2cnc(C)nc2)cc2c(C(C)=O)nn(CC(=O)N3[C@H](C(=O)Nc4nc(Br)ccc4C)C[C@@]4(Cn5cc(C=C)nn5)C[C@@H]34)c12, 2.6 mM, 16.0 h
  ring closure, yield after HPLC: 6.93%
[1]; from C=CCCCCCCc1cc(-c2cnc(C)nc2)cc2c(C(C)=O)nn(CC(=O)N3[C@H](C(=O)Nc4nc(Br)ccc4C)C[C@@]4(Cn5cc(C=C)nn5)C[C@@H]34)c12, 20-membered ring, Grubbs II, 2.6 mM, 16.0 h
  ring closure, isolated yield: 59.4%

## CN1CCCCC=CCc2ccc(Br)nc2NC(=O)[C@@H]2C[C@]3(C[C@H]3N2C(=O)OC(C)(C)C)C1
[1]; from C=CCCCCN(C)C[C@@]12C[C@@H](C(=O)Nc3nc(Br)ccc3CC=C)N(C(=O)OC(C)(C)C)[C@@H]1C2, 16-membered ring, Grubbs II, 1.83 mM
  ring closure, isolated yield: 93.5%

## CC(=O)c1nn2c3c(cc(-c4cnc(C)nc4)cc13)CCCCC=CCc1cccc(n1)OC[C@@]13C[C@@H](C(=O)Nc4nc(Br)ccc4C)N(C(=O)C2)[C@@H]1C3
[2]; from C=CCCCCc1cc(-c2cnc(C)nc2)cc2c(C(C)=O)nn(CC(=O)N3[C@H](C(=O)Nc4nc(Br)ccc4C)C[C@@]4(COc5cccc(CC=C)n5)C[C@@H]34)c12, 1.6 mM, 16.0 h
  ring closure, yield after HPLC: 78.1%

## tert-Butyl (42S,44R,E)-16-Bromo-44-fluoro-3-oxo-6-oxa-2-aza-1(2,3)-pyridina-4(2,4)-pyrrolidinacyclotridecaphan-12-ene-41-carboxylate
[1]; 16-membered ring, Grubbs II, 1.83 mM
  ring closure, isolated yield: 59.3%

## (41R,43S,45S,E)-13-Acetyl-N-(6-bromo-3-methylpyridin-2-yl)-3,14-dioxo-11H-6,15-dioxa-42,13-diaza-1(1,6)-indazola-4(2,5)-bicyclo[3.1.0]hexanacyclopentadecaphan-8-ene-43-carboxamide
[1]; 20-membered ring, Grubbs II, 1.48 mM
  ring closure, isolated yield: 4.1%

## CC(=O)c1nn2c3c(cc(-c4cnc(C)nc4)cc13)CCCCC=CCc1cccc(c1)COC[C@@]13C[C@@H](C(=O)Nc4nc(Br)ccc4C)N(C(=O)C2)[C@@H]1C3
[1]; from C=CCCCCc1cc(-c2cnc(C)nc2)cc2c(C(C)=O)nn(CC(=O)N3[C@H](C(=O)Nc4nc(Br)ccc4C)C[C@@]4(COCc5cccc(CC=C)c5)C[C@@H]34)c12, 21-membered ring, Grubbs II, 1.83 mM, 16.0 h
  ring closure, isolated yield: 40.9%

## CC(=O)c1nn2c3c(cc(-c4cnc(C)nc4)cc13)CCCCC=CCC=C[C@@]13C[C@@H](C(=O)Nc4nc(Br)ccc4C)N(C(=O)C2)[C@@H]1C3
[1]; from C=CCC=C[C@@]12C[C@@H](C(=O)Nc3nc(Br)ccc3C)N(C(=O)Cn3nc(C(C)=O)c4cc(-c5cnc(C)nc5)cc(CCCCC=C)c43)[C@@H]1C2, 17-membered ring, Grubbs II, 2.27 mM, 16.0 h
  ring closure, isolated yield: 21.8%

## tert-Butyl (41R,43S,45R,E)-16-Bromo-8,8-difluoro-3,7-dioxo-13-oxa-42,2,6-triaza-1(2,3)-pyridina-4(3,5)-bicyclo[3.1.0]hexanacyclotetradecaphan-10-ene-42-carboxylate
[1]; 17-membered ring, Grubbs II, 2.0 mM
  ring closure, isolated yield: 96.5%

## CC(=O)c1nn2c3c(nc(-c4cnc(C)nc4)cc13)CC=CCCCC(=O)NC[C@@]13C[C@@H](C(=O)Nc4nc(C(F)(F)F)ccc4C)N(C(=O)C2)[C@@H]1C3
[2]; from C=CCCCC(=O)NC[C@@]12C[C@@H](C(=O)Nc3nc(C(F)(F)F)ccc3C)N(C(=O)Cn3nc(C(C)=O)c4cc(-c5cnc(C)nc5)nc(CC=C)c43)[C@@H]1C2, 17-membered ring, 1.4 mM
  ring closure, yield after HPLC: 26.9%

## CC(=O)c1nn2c3cc(ccc13)NC(=O)NCCCC=CCOC[C@@]13C[C@@H](C(=O)Nc4nc(Br)ccc4C)N(C(=O)C2)[C@@H]1C3
[2]; from C=CCCCNC(=O)Nc1ccc2c(C(C)=O)nn(CC(=O)N3[C@H](C(=O)Nc4nc(Br)ccc4C)C[C@@]4(COCC=C)C[C@@H]34)c2c1, 20-membered ring, 1.6 mM, 16.0 h
  ring closure, yield after HPLC: 2.1%

## CC(=O)c1nn2c3cc(ccc13)NC(=O)OCCCCC=CCOC[C@@]13C[C@@H](C(=O)Nc4nc(Br)ccc4C)N(C(=O)C2)[C@@H]1C3
[1]; from C=CCCCCOC(=O)Nc1ccc2c(C(C)=O)nn(CC(=O)N3[C@H](C(=O)Nc4nc(Br)ccc4C)C[C@@]4(COCC=C)C[C@@H]34)c2c1, 21-membered ring, Grubbs II, 1.7 mM, 16.0 h
  ring closure, isolated yield: 51.2%

## CC(=O)c1nn2c3cc(c(-c4cnc(C)nc4)cc13)OCCCCC=CCOC[C@@]13C[C@@H](C(=O)Nc4nc(Br)ccc4C)N(C(=O)C2)[C@@H]1C3
[2]; from C=CCCCCOc1cc2c(cc1-c1cnc(C)nc1)c(C(C)=O)nn2CC(=O)N1[C@H](C(=O)Nc2nc(Br)ccc2C)C[C@@]2(COCC=C)C[C@@H]12, 18-membered ring, 1.32 mM, 16.0 h
  ring closure, yield after HPLC: 10.6% and 7.07%

## CC(=O)c1nn2c3c(cc(-c4cnc(C)nc4)cc13)CCCCCCC=CCOC[C@@]13C[C@@H](C(=O)Nc4nc(Br)ccc4C)N(C(=O)C2)[C@@H]1C3
[1]; from C=CCCCCCCc1cc(-c2cnc(C)nc2)cc2c(C(C)=O)nn(CC(=O)N3[C@H](C(=O)Nc4nc(Br)ccc4C)C[C@@]4(COCC=C)C[C@@H]34)c12, 19-membered ring, Grubbs II, 3.0 mM, 4.0 h
  ring closure, isolated yield: 88.7%

## CC(C)(C)OC(=O)N1[C@H]2C[C@@]3(CCCC=CCOCc4ccc(Br)nc4NC2=O)C[C@@H]13
[1]; from C=CCCC[C@@]12C[C@@H](C(=O)Nc3nc(Br)ccc3COCC=C)N(C(=O)OC(C)(C)C)[C@@H]1C2, 15-membered ring, Grubbs II, 1.87 mM
  ring closure, isolated yield: 70.4%

## CC(=O)c1nn2c3c(cc(-c4cnc(C)nc4)cc13)C=CCCCCCN(C)C[C@@]13C[C@@H](C(=O)Nc4nc(Br)ccc4C)N(C(=O)C2)[C@@H]1C3
[1]; from C=CCCCCCN(C)C[C@@]12C[C@@H](C(=O)Nc3nc(Br)ccc3C)N(C(=O)Cn3nc(C(C)=O)c4cc(-c5cnc(C)nc5)cc(C=C)c43)[C@@H]1C2, 17-membered ring, Zhan-1B, 4.38 mM
  ring closure, isolated yield: 47.4%

## CC(=O)c1nn2c3cc(ccc13)NC(=O)OCCCC=CCOC[C@@]13C[C@@H](C(=O)Nc4nc(Br)ccc4C)N(C(=O)C2)[C@@H]1C3
[2]; from C=CCCCOC(=O)Nc1ccc2c(C(C)=O)nn(CC(=O)N3[C@H](C(=O)Nc4nc(Br)ccc4C)C[C@@]4(COCC=C)C[C@@H]34)c2c1, 20-membered ring, 2.0 mM, 2.0 h
  ring closure, yield after HPLC: 68.5%

## CN1CCCCCC=C[C@@]23C[C@@H](C(=O)Nc4nc(Br)ccc4C1)N(C(=O)OC(C)(C)C)[C@@H]2C3
[1]; from C=CCCCCCN(C)Cc1ccc(Br)nc1NC(=O)[C@@H]1C[C@@]2(C=C)C[C@H]2N1C(=O)OC(C)(C)C, 16-membered ring, Grubbs II, 1.78 mM, 16.0 h
  ring closure, isolated yield: 72.4%

## CC(C)(C)OC(=O)N1[C@H]2C[C@@]3(Cc4nc(no4)C=CCOCc4ccc(Br)nc4NC2=O)C[C@@H]13
[1]; from C=CCOCc1ccc(Br)nc1NC(=O)[C@@H]1C[C@@]2(Cc3nc(C=C)no3)C[C@H]2N1C(=O)OC(C)(C)C, 16-membered ring, Zhan-1B, 1.75 mM, 16.0 h
  ring closure, isolated yield: 56.2%

## CC(=O)c1nn2c3c(cc(-c4cnc(C)nc4)cc13)CC=CCCCC(=O)N(C)C[C@@]13C[C@@H](C(=O)Nc4ccc(C)c(C(F)(F)F)n4)N(C(=O)C2)[C@@H]1C3
[1]; from C=CCCCC(=O)N(C)C[C@@]12C[C@@H](C(=O)Nc3ccc(C)c(C(F)(F)F)n3)N(C(=O)Cn3nc(C(C)=O)c4cc(-c5cnc(C)nc5)cc(CC=C)c43)[C@@H]1C2, 17-membered ring, Grubbs II, 1.24 mM
  ring closure, isolated yield: 70.6%

## CC(=O)c1nn2c3c(cc(-c4cnc(C)nc4)cc13)CCC=CCCCC(=O)NC[C@@]13C[C@@H](C(=O)Nc4nc(Br)ccc4C)N(C(=O)C2)[C@@H]1C3
[2]; from C=CCCCC(=O)NC[C@@]12C[C@@H](C(=O)Nc3nc(Br)ccc3C)N(C(=O)Cn3nc(C(C)=O)c4cc(-c5cnc(C)nc5)cc(CCC=C)c43)[C@@H]1C2, 17-membered ring, 7.0 mM, 2.5 h
  ring closure, yield after HPLC: 15.8%
[2]; from C=CCCCC(=O)NC[C@@]12C[C@@H](C(=O)Nc3nc(Br)ccc3C)N(C(=O)Cn3nc(C(C)=O)c4cc(-c5cnc(C)nc5)cc(CCC=C)c43)[C@@H]1C2, 18-membered ring, 7.0 mM, 2.5 h
  ring closure, yield after HPLC: 11.6%

## Cc1ncc(-c2cc3c(C#N)nn4c3c(n2)CC=CCCCC(=O)NC[C@@]23C[C@@H](C(=O)Nc5nc(Br)ccc5C)N(C(=O)C4)[C@@H]2C3)cn1
[1]; from C=CCCCC(=O)NC[C@@]12C[C@@H](C(=O)Nc3nc(Br)ccc3C)N(C(=O)Cn3nc(C#N)c4cc(-c5cnc(C)nc5)nc(CC=C)c43)[C@@H]1C2, 17-membered ring, Grubbs II, 1.27 mM, 16.0 h
  ring closure, isolated yield: 44.8%

## CC(C)(C)OC(=O)N1[C@H]2C[C@@]3(CNC(=O)C(F)(F)CC=CCOCc4ccc(Br)nc4NC2=O)C[C@@H]13
[1]; from C=CCOCc1ccc(Br)nc1NC(=O)[C@@H]1C[C@@]2(CNC(=O)C(F)(F)CC=C)C[C@H]2N1C(=O)OC(C)(C)C, 17-membered ring, Grubbs II, 2.0 mM
  ring closure, isolated yield: 96.5%

## CC(=O)c1nn2c3cc(ccc13)C(=O)NCCCCC=CCOC[C@@]13C[C@@H](C(=O)Nc4nc(Br)ccc4C)N(C(=O)C2)[C@@H]1C3
[1]; from C=CCCCCNC(=O)c1ccc2c(C(C)=O)nn(CC(=O)N3[C@H](C(=O)Nc4nc(Br)ccc4C)C[C@@]4(COCC=C)C[C@@H]34)c2c1, 20-membered ring, Grubbs II, 1.44 mM, 16.0 h
  ring closure, isolated yield: 45.6%
